Assay results taken from patent publication US11981696B2, “Fluoro-pyridinone phosphates and boronates useful as antibacterial agents” (Pfizer Inc., priority 2018, dated 2024).
In brackets after ≈: the same amount, converted by molar mass.

How the values were obtained:
[1] = tested on: Acinetobacter baumannii/haemolyticus AB-3167; experiment: MIC determination (CLSI), AB-3167; format: cell-based; settings: multidrug-resistant clinical isolate, lower of duplicate values
Method: (§1) B) MIC determinations: The in vitro antibacterial activity of compounds was evaluated by minimum inhibitory concentration (MIC) testing according to Clinical and Laboratory Standards Institute (CLSI). See: Clinical and Laboratory Standards Institute. Methods for Dilution Antimicrobial Susceptibility Tests for Bacteria that Grow Aerobically; Approved Standard-Eighth Edition. CLSI document M7-A8 [ISBN 1-56238-689-1]. Clinical and Laboratory Standards Institute, 940 West Valley Road, Suite 1400, Wayne, Pennsylvania 19087-1898 USA, 2006; also Clinical and Laboratory Standards Institute. Performance Standards for Antimicrobial Susceptibility Testing; Twentieth Informational Supplement. CLSI document M100-S20 [ISBN1-56238-716-2]. Clinical and Laboratory Standards Institute.
(§2) The MIC determination is a standard laboratory method for evaluating the antibacterial activity of a compound. […] The MIC is then determined by visually inspecting the drug effect at each concentration, and identifying the lowest drug concentration that has inhibited bacterial growth as compared to the drug free control. […]
(§3) The MIC values described in Table 3 below were derived from assays wherein each test compound was evaluated in duplicate. […] While a single MIC is reported for each compound and each microorganism, the reader should not conclude that each compound was only tested once. […]

Escherichia coli EC-1 = experiment: MIC determination (CLSI), EC-1; format: cell-based; settings: EC1, read-out: EC-1 MIC
Method: as §1, §2, §3

[2] = tested on: Klebsiella pneumoniae KP-3700; experiment: MIC determination (CLSI), KP-3700; format: cell-based; settings: ciprofloxacin-resistant, ESBL clinical isolate; lower of duplicate values
Method: as §1, §2, §3

[3] = tested on: Pseudomonas aeruginosa UI-18 (PA-7); experiment: MIC determination (CLSI), PA-7; format: cell-based; settings: wild-type UI-18, lower of duplicate values
Method: as §1, §2, §3

[4] = Solubility in normal saline; format: physicochemical; settings: saline or isotonic
hepatocytes from mouse = experiment: In vitro hepatocyte study, mouse; format: in vitro ADME; settings: concomitant appearance of parent compound and its glucuronide metabolite
From the text: (§4) In vitro hepatocyte study: The disposition of (2R)-4-[5-fluoro-4-(2-fluoro-4-methoxyphenyl)-2-oxopyridin-1(2H)-yl]-N-hydroxy-2-methyl-2-(methylsulfonyl) butanamide phosphate was examined in hepatocytes from mouse, rat, dog, monkey and human. In each case, qualitatively it was observed that the (2R)-4-[5-fluoro-4-(2-fluoro-4-methoxyphenyl)-2-oxopyridin-1(2H)-yl]-N-hydroxy-2-methyl-2-(methylsulfonyl) butanamide phosphate disappeared, concomitant with appearance of (2R)-4-[5-fluoro-4-(2-fluoro-4-methoxyphenyl)-2-oxopyridin-1(2H)-yl]-N-hydroxy-2-methyl-2-(methylsulfonyl) butanamide (parent compound) and a glucuronide metabolite of the parent compound. In Vivo Studies

hepatocytes from rat = experiment: In vitro hepatocyte study, rat; format: in vitro ADME; settings: concomitant appearance of parent compound and its glucuronide metabolite
From the text: as §4

hepatocytes from dog = experiment: In vitro hepatocyte study, dog; format: in vitro ADME; settings: concomitant appearance of parent compound and its glucuronide metabolite
From the text: as §4

hepatocytes from monkey = experiment: In vitro hepatocyte study, monkey; format: in vitro ADME; settings: concomitant appearance of parent compound and its glucuronide metabolite
From the text: as §4

hepatocytes from human = experiment: In vitro hepatocyte study, human; format: in vitro ADME; settings: concomitant appearance of parent compound and its glucuronide metabolite
From the text: as §4

disposition in hepatocytes (qualitative) (hepatocytes from mouse)	disposition in hepatocytes (qualitative) (hepatocytes from rat)	disposition in hepatocytes (qualitative) (hepatocytes from dog)	disposition in hepatocytes (qualitative) (hepatocytes from monkey)	disposition in hepatocytes (qualitative) (hepatocytes from human)	SMILES	MIC [1]	MIC (Escherichia coli EC-1)	KP-3700 MIC [2]	MIC [3]	solubility [4]
–	–	–	–	–	COc1ccc(-c2cc(=O)n(CC[C@](C)(C(=O)NO)S(C)(=O)=O)cc2F)c(F)c1 [Parent Compound, (2R)-4-[5-fluoro-4-(2-fluoro-4-methoxyphenyl)-2-oxopyridin-1(2H)-yl]-N-hydroxy-2-methyl-2-(methylsulfonyl)butanamide]	> 64 µg/mL	0.25 µg/mL (≈ 0.581 µM)	0.5 µg/mL	0.5 µg/mL (≈ 1.16 µM)	< 1 mg/mL
disappeared	disappeared	disappeared	disappeared	disappeared	COc1ccc(-c2cc(=O)n(CC[C@](C)(C(=O)NOP(=O)(O)O)S(C)(=O)=O)cc2F)c(F)c1 [Example 1, (2R)-4-(5-fluoro-4-(2-fluoro-4-methoxyphenyl)-2-oxopyridin-1(2H)-yl)-2-methyl-2-(methylsulfonyl)butanamido phosphate]	–	–	–	–	–
–	–	–	–	–	COc1ccc(-c2cc(=O)n(CC[C@](C)(C(=O)NOP(=O)([O-])[O-])S(C)(=O)=O)cc2F)c(F)c1.[Na+].[Na+] [Example 3, (R)-4-(5-fluoro-4-(2-fluoro-4-methoxyphenyl)-2-oxopyridin-1(2H)-yl)-2-methyl-2-(methylsulfonyl)butanamido phosphate, Disodium Salt]	–	–	–	–	≥ 20 mg/mL
